Results on 13 compounds are retold here after PubChem BioAssay (NCI).

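Method: 48-hour compound exposure of cells in 96-well plates, five concentrations, linear interpolation of endpoints. Definition used: TGI = concentration required for complete inhibition of growth.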

What all share (assay): NCI-60 cell line screen, 48 h
For assay [1], the system named is A498 renal.
Assay [2] concerns EKVX NSCLC.
For assay [3], the system named is HOP-92 NSCLC.
Assay [4] concerns MDA-N.
Assay [5] relates to NCI-H226 lung.
The test system of assay [6] is NCI-H23 lung.
In assay [7] the test system is RPMI-8226 leukemia.
Assay [8] relates to UACC-257 melanoma.
The subject of assay [9] is UACC-62 melanoma.
Assay [10] relates to UO-31 renal.
Assay [11] has as its system SNB-75 CNS.

For the compound `CC1=NNC(N)=N/C1=C\C(Sc1ccc(Cl)cc1)c1ccc([N+](=O)[O-])cc1` (stereo unspecified), the TGI was greater than 100 µM in assay [1]; greater than 100 µM in assay [2]; greater than 100 µM in assay [3]; greater than 100 µM in assay [4]; 68.1 µM in assay [5]; greater than 100 µM in assay [6]. Besides, the TGI in [7], in [8], in [9] and in assay [10] was greater than 100 µM throughout.

As for `COCN(CCC1=CCCCC1)C(=O)OC`, the TGI in assay [1], in assay [2], in assay [3], in assay [4], in [6] and in assay [7] was greater than 100 µM throughout. Moreover, the TGI in assay [11], in [8], in [9] and in [10] was greater than 100 µM throughout.

On to `O=C1/C(=C/c2ccc([N+](=O)[O-])cc2)C(=O)N(c2ccccc2)C1c1ccccc1` (stereo unspecified), for which the TGI in assay [1], in [2], in assay [4], in [5], in assay [6] and in assay [7] was greater than 10 µM throughout. Moreover, the TGI in assay [11], in assay [8], in [9] and in assay [10] was greater than 10 µM throughout.

With `O=C1/C(=N/O)Cc2c(Br)ccc(Br)c21`, the TGI in assay [1], in [2], in assay [3], in assay [4], in assay [5] and in assay [6] was greater than 100 µM throughout. The TGI in [7], in assay [11], in [8] and in [10] was greater than 100 µM each time.

`COC[C@@H](C[C@H]1O[C@@](O)([C@H](O)[C@@H]2C[C@H](OC)[C@@H](O)CC/C=C(C)/C=C/[C@@H](O[C@@H]3O[C@@H](C)[C@H](OC)[C@@H](O)[C@@H]3O)[C@H](C)/C=C(C)/C=C(C)/C=C(\C)C(=O)O2)[C@H](C)[C@@H](O)[C@H]1C)O[C@H]1C[C@](C)(O)[C@@H](O[C@H]2C[C@@H](OC)[C@H](O)[C@@H](C)O2)C(C)O1` (stereo partly specified): the TGI was greater than 100 µM in assay [1]; greater than 55.9 µM in assay [2]; greater than 100 µM in [3]; greater than 100 µM in assay [4]; greater than 100 µM in assay [5]; greater than 100 µM in assay [6]. Also, the TGI in assay [7] is greater than 100 µM; in assay [8], 26.5 µM; in assay [9] it was greater than 100 µM; in assay [10], greater than 100 µM.

For the compound `Cc1cccc(N=NC(=O)NNc2cccc(C)c2C)c1C`, the TGI in assay [1] is 92.6 µM; in [4], greater than 100 µM; in [5] it was greater than 100 µM; in assay [6], greater than 100 µM; in assay [7], 74.8 µM; in assay [11] it was greater than 100 µM. In addition, the TGI in assay [8], in assay [9] and in [10] was greater than 100 µM in each case.

As for `Cn1cc(NC(=O)c2cc(NC(=O)CN=C(N)N)cn2C)cc1C(=O)NCCC(=N)N`, the TGI in [1], in assay [2], in [3], in [4], in [5] and in assay [6] was greater than 100 µM throughout. Also, the TGI in assay [7], in assay [8], in assay [9] and in [10] was greater than 100 µM each time.

Regarding `CCOP(C)(=O)C(N)Cc1ccc(OC)c(OC)c1` (stereo unspecified), the TGI in assay [1], in [2], in assay [3], in assay [4], in [5] and in assay [6] was greater than 100 µM in each case. Besides, the TGI in assay [7], in [11], in [9] and in assay [10] was greater than 100 µM each time.

For `Cc1c(S(=O)(=O)/N=C(\NO)Nc2ccc(Cl)c(Cl)c2)sc2ccc(Cl)cc12`, the TGI in assay [1] is 38.2 µM; in assay [2], 27.4 µM; in assay [3] it was 43.8 µM; in assay [4], 34.8 µM; in assay [5] it was 43.8 µM; in assay [6] it was 36.6 µM. The TGI in [7] is greater than 100 µM; in assay [8], 37.6 µM; in assay [9] it was 37.2 µM; in assay [10] it was 37.8 µM.

`COc1cc(Cn2c3c(c4cc(O)ccc42)Cc2ccccc2C3=O)cc(OC)c1`: the TGI is greater than 100 µM in assay [1]; greater than 100 µM in [4]; greater than 100 µM in [5]; greater than 100 µM in assay [6]; 26.5 µM in [7]; 58.5 µM in assay [11]. Besides, the TGI in assay [8], in [9] and in assay [10] was greater than 100 µM each time.

Consider `COc1ccc(C(=C(Cl)c2ccccc2)c2ccc(OC)cc2)cc1`, for which the TGI in [1], in assay [2], in assay [3], in [4], in assay [5] and in [6] was greater than 100 µM throughout. Moreover, the TGI in assay [7], in [8], in [9] and in assay [10] was greater than 100 µM each time.

For `CC(=O)OCC12C(=O)C[C@@H](C)C3(CC(c4ccoc4)OC3=O)C1CCC(OC(C)=O)C21CO1` (stereo partly specified), the TGI in [1], in assay [3], in assay [4], in [5], in assay [6] and in [7] was greater than 100 µM throughout. In addition, the TGI in assay [11], in assay [8], in assay [9] and in [10] was greater than 100 µM in each case.

In the case of `Cc1ccc(-c2c(C#N)c(-c3ccc(Cl)cc3)c(C#N)c(=O)n2NS(=O)(=O)c2ccc(C)cc2)cc1`, the TGI was 86.3 µM in assay [1]; greater than 100 µM in assay [2]; greater than 100 µM in [3]; greater than 100 µM in assay [4]; greater than 100 µM in assay [5]; greater than 100 µM in assay [11]. Moreover, the TGI in assay [8] was greater than 100 µM; in assay [9], 45 µM.
